Patent US8652467B2, “Dek protein compositions and methods of using the same” (The Regents of the University of Michigan, priority 2005, dated 2014)
“Also recorded” adds a separate entry of the source. Peptide text beside a SMILES is read from it. * marks the point of attachment. Cbz = O=C(OCc1ccccc1)*; CH2F = FC*

Experiments:
[1] = tested on: monocyte-derived macrophages (MDM); assay: DEK secretion by serum-differentiated MDM, Western blot of supernatants; format: cell-based, human; details: for amount of DEK found in culture supernatants: treatment of MDM with Golgi inhibitors
Experimental: MDM were prepared as described (See, e.g., Lane et al., J Immunol 163, 3653-61. (1999)). Briefly, heparinized venous blood was collected from healthy volunteers, and peripheral blood mononuclear cells (PBMC) were separated by Ficoll-Hypaque (Amersham Pharmacia Biotech AB, Uppsala, Sweden) density gradient centrifugation. MDM were purified by adherence to plastic for 2 h at 37° C. at a concentration of 5×10^5/ml. Adherent cells were consistently >90% monocytes (See, e.g., Lane et al., J Immunol 163, 3653-61. (1999)). […]
MDMs were maintained for 12 h in serum-free conditioned media with added dexamethasone, (0.5 μM or 1 μM) (Sigma St. Louis, Mo.), cyclosporin A (CsA, 1 μg/ml) (Sigma St. Louis, Mo.), carbonyl cyanide chlorophenyl hydrazone (CCCP) (10 μM) (Sigma St. Louis, Mo.), IL-8 (10 ng/ml) (R&D Systems, Minneapolis, Minn.) or TBB (See, e.g., Sarno et al., Pharmacol Ther 93, 159-68 (2002)) for 3 hours. Following 3 washes with PBS, serum-free media was added for 3 to 12 h before harvest. The viability of the cells incubated in serum-free medium with or without added drugs was >95% at 48 h as measured by MTT-based colorimetric assay (Boehringer Mannheim, Indianapolis, Ind.) and by LDH release as previously described (See, e.g., Punturieri et al., J Exp Med 192, 789-99. (2000)). Supernatants were collected and centrifuged for 20 min at 200×g to remove cell debris, then concentrated by a centrifugal filter device (Millipore) in the presence of a protease inhibitor cocktail (Boehringer Mannheim, Indianapolis, Ind.). Equal amounts of protein (20 μg) were loaded under reducing conditions and proteins were separated by 10% SDS-PAGE. The proteins were subsequently transferred to nitrocellulose and probed with mouse monoclonal anti-DEK or rabbit or goat polyclonal anti-DEK antibodies. The bound primary antibody was then detected with horseradish peroxidase-conjugated goat anti-mouse or anti-rabbit secondary antibody using the Super Signal West Pico system (Pierce Chemical Co, Rockford, Ill.).

[2] = tested on: Jurkat control and DEK-knockdown cells; assay: DEK knock-down and DNA damage assay (Annexin-V); format: cell-based; details: increasing doses, 24 hours
Experimental: Jurkat and HeLa S3 cells were transduced with either an empty lentiviral vector, or a vector containing two DEK-specific shRNAs. Control and DEK-knockdown Jurkat cells were exposed to increasing doses of UVC radiation. Twenty-four hours after irradiation, the percentage of apoptotic cells was determined by staining with Annexin-V and analysis by flow cytometry. HeLa S3 control and DEK-knockdown cells were similarly treated with increasing doses of UVC radiation. Cells were fixed, permeabilized, and stained with R-phycoerythrin labeled antibodies against the active form of caspase-3 twenty-four hours after irradiation. The percentage of cells expressing the active form of caspase-3 was determined by flow cytometry. Jurkat control and DEK-knockdown transduced cells were treated with either etoposide or cisplatin at increasing doses and 24 hours later the percentage of apoptotic cells was determined by staining with Annexin-V.

[3] = tested on: Jurkat cells; assay: FAS-L induced apoptosis assay, DEK release into cytoplasm; format: cell-based; details: Fas Ligand-mediated apoptosis, 3% FAS-L, 180 min
Experimental: Jurkat cells were washed with serum-free RPMI medium and incubated with 3% FAS-L without or with the broad-spectrum caspase inhibitor zVAD for 180 min. Cells were fractionated and the cytoplasm was separated by SDS-PAGE followed by immunoblotting with DEK specific antibodies (mouse monoclonal, BD Bioscience). As a loading control the same blot was reprobed with specific antibodies to beta-actin.

[4] = tested on: purified neutrophils (PMN); assay: In vitro migration assay with purified neutrophils; format: cell-based, human; details: SB225002 3 μM, 1 h
Experimental: Purified neutrophils (PMN) were treated with IL-8 (50 nM), the CXCR2 small molecule inhibitor SB225002 (3 μM), DEK (79 nM), IL-8 plus SB225002, or DEK plus SB225002 for 5 min at room temperature before and then during the migration assay. After 1 h, the number of fluorescently labeled migrating cells in the lower chamber was determined at 485 nM/535 nm wavelengths by Tecan GENios (Phenix, Austria). […] The results are expressed as the average fold increase in the number of cells migrating toward DEK compared to control wells containing medium only. White blood cells were isolated from venous blood from healthy donors as described above, and were depleted of monocytes by adherence to plastic for 2 h as described in the Cell Preparation section. […] The cells were washed and resuspended at 1×10^6 cells/ml in serum-free RPMI medium, and 1×10^5 labeled cells in 100 μl were added to the upper chamber of a 24-well Transwell chemotaxis insert with pore size of 3 μm or 5 μm (Corning, N.Y.). The lower chambers contained serum-free RPMI medium alone, recombinant DEK made in baculovirus, or a deletion mutant of the β form of human GLI-2 (See, e.g., Smith et al., J Virol 75, 2301-13 (2001)) produced in baculovirus as the control protein. After 30 min to 1 h, the number of fluorescently labeled migrating cells in the lower chamber was determined at […] wavelength using a Tecan GENios plate-reader (Phenix, Austria). The results were expressed as the average fold increase of the number of cells migrating toward lower chambers containing DEK divided by the number of cells migrating toward the control wells (medium alone). Forty ml of venous blood was collected from healthy volunteers into a 50 ml sterile syringe containing a mixture of 7 ml 0.25 M Citrate (0.17 M NA Citrate and 0.083 M Citric Acid) and 6% Dextran in PBS buffer. The blood was incubated for 30 min at room temperature and the upper phase was collected and further separated by Ficoll as described above. The neutrophil fraction was collected and washed with HBSS buffer and then pelleted again. […]

[5] = target: T1, CXCR2 (Homo sapiens, UniProt P25025); details: at low concentrations; cited from earlier work
T1 sequence (P25025 1-360): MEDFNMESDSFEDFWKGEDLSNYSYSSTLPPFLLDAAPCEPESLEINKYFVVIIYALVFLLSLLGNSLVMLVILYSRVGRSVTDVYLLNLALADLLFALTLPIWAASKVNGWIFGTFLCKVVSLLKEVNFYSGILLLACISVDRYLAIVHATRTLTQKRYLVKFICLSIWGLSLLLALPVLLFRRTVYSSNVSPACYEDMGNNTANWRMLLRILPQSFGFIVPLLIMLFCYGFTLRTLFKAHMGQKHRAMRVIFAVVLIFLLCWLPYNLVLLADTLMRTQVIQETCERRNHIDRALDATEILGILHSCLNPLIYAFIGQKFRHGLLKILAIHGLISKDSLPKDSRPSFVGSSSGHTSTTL

[6] = MDM in 10% human serum, TNF-α 5-100 ng/ml, IFN-γ 10-100 ng/ml, MCP-1 10-100 ng/ml, LPS 500-1000 ng/ml alone and with IFN-γ

With lipopolysaccharide [LPS] the “stimulation of DEK secretion” value [1, 6] was “None of the inflammatory mediators listed above reproducibly stimulated DEK secretion”.

With `COc1cc([C@@H]2c3cc4c(cc3[C@@H](O[C@@H]3O[C@@H]5CO[C@@H](C)O[C@H]5[C@H](O)[C@H]3O)[C@H]3COC(=O)[C@H]23)OCO4)cc(OC)c1O` [etoposide] the “sensitivity of DEK knock-down cells vs control cells (apoptosis)” value [2] was “consistently more sensitive”.

In the case of `N.N.[Cl][Pt][Cl]` [cisplatinum], the “sensitivity of DEK knock-down cells vs control cells (apoptosis)” value [2] is reported as “consistently more sensitive”.

In the case of `CC(NC(=O)C(NC(=O)OCc1ccccc1)C(C)C)C(=O)NC(CC(=O)O)C(=O)CF` (stereo not drawn) [ZVAD] (Cbz-Val-Ala-Asp-CH2F; configuration not given here), the “release of DEK into the cytoplasm” value [3] is reported as “blocks”.

In the case of “MCP-1: monocyte chemoattractant protein-1”, the “stimulation of DEK secretion” value [1, 6] is reported as “None of the inflammatory mediators listed above reproducibly stimulated DEK secretion”.

With tunicamycin the DEK secretion ([1]; treatment of MDM with tunicamycin (inhibits N-glycosylation)) was “not inhibited”.

In the case of `O=C(Nc1ccc([N+](=O)[O-])cc1O)Nc1ccccc1Br` [SB225002], the “neutrophil migration toward DEK” value ([4]; DEK 79 nM) is listed as “significantly blocked; also recorded: virtually complete inhibition”, the “neutrophil migration toward IL-8” value ([4]; IL-8 50 nM) is listed as “significantly blocked; also recorded: virtually complete inhibition” and the receptor selectivity [5] is listed as “selective for CXCR2”.

In the case of `CC[C@@]1([C@@H]2O[C@@H]([C@H]3O[C@@](O)(CO)[C@H](C)C[C@@H]3C)C[C@@H]2C)CC[C@H]([C@]2(C)CC[C@]3(C[C@H](O)[C@@H](C)[C@@H]([C@@H](C)[C@@H](OC)[C@H](C)C(=O)O)O3)O2)O1` [monensin], the “amount of DEK found in culture supernatants” value [1] is reported as “does not alter”.

For TNF-α, the “stimulation of DEK secretion” value [1, 6] was “None of the inflammatory mediators listed above reproducibly stimulated DEK secretion”.

In the case of `Brc1c(Br)c(Br)c2[nH]nnc2c1Br` [TBB, 4,5,6,7-tetrabromobenzotriazole], the “inhibition of DEK secretion” value ([1]; 12-day MDM treated with TBB) is reported as “complete inhibition”, the “amount of extracellular DEK from TBB-treated cells vs untreated cells” value ([1]; 12 hours after removal of TBB) is reported as “significantly lower” and the “DEK in supernatants collected during the first 3 hours of incubation in serum free media” value ([1]; three-hour treatment of 8-day MDM with TBB (50 μM)) is reported as “absent”.

For `C[C@H]1CCC/C=C/[C@@H]2C[C@H](O)C[C@H]2[C@H](O)/C=C/C(=O)O1` [Brefeldin A], the “amount of DEK found in culture supernatants” value [1] was “does not alter”.

With “IL-8: recombinant IL-8, chemokine, neutrophil chemoattractant” the “stimulation of DEK secretion” value ([1]; IL-8 10 ng/ml, 12 h, day 12 MDM grown in 10% human serum) was “induces the secretion of DEK; also recorded: effective in stimulating vigorous secretion of DEK”.

B1: IFN-γ: inflammatory mediator (protein, UniProt P01579 24-161, looked up)
Interferon gamma: QDPYVKEAENLKKYFNAGHSDVADNGTLFLGILKNWKEESDRKIMQSQIVSFYFKLFKNFKDDQSIQKSVETIKEDMNVKFFNSNKKKRDDFEKLTNYSVTDLNVQRKAIHELIQVMAELSPAAKTGKRKRSQMLFRG
In the case of B1, the “stimulation of DEK secretion” value [1, 6] is reported as “None of the inflammatory mediators listed above reproducibly stimulated DEK secretion”.
